Test results from patent publication US20130225424A1, “METHODS FOR DETERMINING RESPONSIVENESS TO A DRUG BASED UPON DETERMINATION OF RAS MUTATION AND/OR RAS AMPLIFICATION” (Targeted Molecular Diagnostics, LLC, priority 2010, published 2013).

Experiments:
[1] = tested on: K-RAS wild-type NSCLC cells; assay: Gene/protein expression after Methotrexate treatment, K-RAS wild-type cells; assay type: cell-based
Protocol: (§1) Finally, expression of genes/proteins related to folate metabolism and cell cycle progression were examined in K-RAS mutant and K-RAS wild-type NSCLC cells with Methotrexate treatment and K-RAS overexpression or knockdown. Briefly, A549 cells were treated with Methotrexate at a concentration of 0.1 μM. 72 hours after treatment, total RNA was extracted from treated and untreated cells. RT-PCR was then performed on extracted RNA to determine gene expression of K-RAS, Dihydrofolate Reductase (DHFR), Thymidylate Synthase (TYMS) and E2F1. Gene expression was normalized to […] as an internal control.

[2] = tested on: K-RAS wild-type (Calu-3, NCI-H650 & NC-H661) NSCLC cells; assay: Cyquant Direct proliferation assay, K-RAS wild-type NSCLC cells; assay type: cell-based; details: K-RAS wild-type cells Calu-3, NCI-H650 & NC-H661; 0-10 μM; 72 hours
Protocol: (§2) Additionally, a variety of NSCLC cell lines that were K-RAS mutant (A549, NCI-H460 & NCI-H23), K-RAS mutant/amplified (NCI-H727 & NCI-H2009) and K-RAS wild-type (Calu-3, NCI-H650 & NC-H661) NSCLC cells were plated in 96 well plates treated and treated 24 hours later with multiple concentrations of Methotrexate (0-10 μM). After an additional 72 hours cells were assayed for proliferation using the Invitrogen Cyquant Direct™ proliferation assay. IC50 (inhibitory concentration that kills 50% of cells) was determined using graphpad software. Cells were treated in triplicate and cell numbers were calculated as percent untreated control.

A549 cells = assay: RT-PCR gene/protein expression after Methotrexate treatment, K-RAS mutant cells; assay type: cell-based; details: 0.1 μM, 72 hours after treatment, normalized to Beta-2-Macroglobulin
Protocol: as §1

[3] = tested on: K-RAS mutant (A549, NCI-H460 & NCI-H23) NSCLC cells; assay: Cyquant Direct proliferation assay, K-RAS mutant NSCLC cells; assay type: cell-based; details: 0-10 μM, 72 hours
Protocol: as §2

H460 cells = assay: H460 tumors implanted in mice, cleaved caspase-3 staining; assay type: in vivo; details: H460 tumors approx. 500 mg; 130 mg/kg Q4Dx3 IP; harvested 10 days after treatment; cleaved caspase-3 stain
Text: Tumors were then harvested 10 days after treatment, fixed in formalin and stained for cleaved caspase-3. Next, bright-field pictures were taken at 40× (see, FIG. 4).

[4] = tested on: K-RAS mutant/amplified (NCI-H727 & NCI-H2009) NSCLC cells; assay: Cyquant Direct proliferation assay, K-RAS mutant/amplified NSCLC cells; assay type: cell-based; details: 0-10 μM, 72 hours
Protocol: as §2

CN(Cc1cnc2nc(N)nc(N)c2n1)c1ccc(C(=O)N[C@@H](CCC(=O)O)C(=O)O)cc1 [Methotrexate]
Expression of DHFR, TS, E2F-1, phosphorylated Rb and mutant K-RAS decreased [1]: not | sensitivity to Methotrexate (proliferation) [2]: not sensitive | Expression of DHFR, TS, E2F-1, phosphorylated Rb and mutant K-RAS (A549 cells): decreased | sensitivity to Methotrexate (proliferation) [3]: sensitive | sensitivity (responsiveness) of tumors with K-Ras mutant cells (H460 cells): sensitive | sensitivity to Methotrexate (proliferation) [4]: sensitive
